Patent US20230233569A1 (Revolution Medicines, Inc., priority 2020, published 2023)
Like-named read-outs stand apart in the source and are kept apart here.

Assays:
Experiment in all cases: Ras-Raf disruption / FRET / MOA assay (BRAF RBD)
Type in all cases: biochemical
KRAS G12D = KRAS G12D (Homo sapiens, UniProt P01116+P62937, G12D); conditions: with Cyclophilin A
Procedure, shortened: (§1)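 TR-FRET in 25 mM HEPES pH 7.3, 100 mM NaCl, 5 mM MgCl2, 0.1% BSA, 0.002% Tween20 with 25 μM Cyclophilin A, 12.5 nM His6-Ras-GMPPNP, 50 nM GST-BRAF RBD; compound 10-point 3-fold series from 30 μM. After 3 h at 25 °C, Eu anti-His/APC anti-GST added for 1.5 h; IC50 from ratio decrease versus DMSO.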

NRAS G12C = NRAS G12C (Homo sapiens, UniProt P01111+P62937, G12C)
Sequence of NRAS G12C (P01111 whole entry G12C): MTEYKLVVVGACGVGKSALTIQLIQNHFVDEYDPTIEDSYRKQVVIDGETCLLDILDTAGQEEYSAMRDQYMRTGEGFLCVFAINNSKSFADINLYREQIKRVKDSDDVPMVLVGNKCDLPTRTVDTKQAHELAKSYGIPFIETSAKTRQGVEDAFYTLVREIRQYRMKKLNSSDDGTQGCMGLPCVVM
Sequence of NRAS G12C (P62937 whole entry): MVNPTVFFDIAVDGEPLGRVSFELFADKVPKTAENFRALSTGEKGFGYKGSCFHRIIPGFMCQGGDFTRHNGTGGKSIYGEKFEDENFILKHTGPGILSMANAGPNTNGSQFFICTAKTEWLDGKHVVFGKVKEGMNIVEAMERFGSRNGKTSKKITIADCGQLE
Procedure, shortened: as §1

KRAS WT = KRAS WT (Homo sapiens, UniProt P01116+P62937); conditions: with Cyclophilin A
Sequence of KRAS WT (P01116 1-169 isoform P01116-2 limits assumed): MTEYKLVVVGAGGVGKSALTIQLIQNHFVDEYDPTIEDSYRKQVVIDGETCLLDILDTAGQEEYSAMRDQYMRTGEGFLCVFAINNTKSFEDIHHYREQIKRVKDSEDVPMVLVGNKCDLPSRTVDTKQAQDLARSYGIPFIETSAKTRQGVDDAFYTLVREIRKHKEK
Sequence of KRAS WT (P62937 whole entry): as the sequence (P62937 whole entry) above
Procedure, shortened: as §1

KRAS G13C = KRAS G13C (Homo sapiens, UniProt P01116+P62937, G13C); conditions: with Cyclophilin A
Sequence of KRAS G13C (P01116 1-169 isoform P01116-2 G13C limits assumed): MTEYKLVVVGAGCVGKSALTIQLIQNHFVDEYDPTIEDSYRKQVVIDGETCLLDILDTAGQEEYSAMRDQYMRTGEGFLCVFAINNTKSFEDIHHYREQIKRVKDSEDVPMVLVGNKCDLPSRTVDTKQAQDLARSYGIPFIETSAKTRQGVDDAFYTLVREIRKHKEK
Sequence of KRAS G13C (P62937 whole entry): as the sequence (P62937 whole entry) above
Procedure, shortened: as §1

KRAS G12V = KRAS G12V (Homo sapiens, UniProt P01116+P62937, G12V); conditions: with Cyclophilin A
Sequence of KRAS G12V (P01116 1-169 isoform P01116-2 G12V limits assumed): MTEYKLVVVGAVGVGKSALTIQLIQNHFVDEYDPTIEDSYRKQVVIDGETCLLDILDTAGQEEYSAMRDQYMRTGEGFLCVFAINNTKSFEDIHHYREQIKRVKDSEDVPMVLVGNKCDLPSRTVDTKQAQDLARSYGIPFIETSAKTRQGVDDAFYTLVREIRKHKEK
Sequence of KRAS G12V (P62937 whole entry): as the sequence (P62937 whole entry) above
Procedure, shortened: as §1

KRAS G13D = KRAS G13D (Homo sapiens, UniProt P01116+P62937, G13D); conditions: with Cyclophilin A
Sequence of KRAS G13D (P01116 1-169 isoform P01116-2 G13D limits assumed): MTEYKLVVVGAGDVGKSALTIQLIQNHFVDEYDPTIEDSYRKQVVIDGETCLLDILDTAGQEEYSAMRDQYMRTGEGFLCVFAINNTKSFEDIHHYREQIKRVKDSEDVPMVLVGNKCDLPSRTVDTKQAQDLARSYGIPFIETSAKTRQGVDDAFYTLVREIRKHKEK
Sequence of KRAS G13D (P62937 whole entry): as the sequence (P62937 whole entry) above
Procedure, shortened: as §1

NRAS Q61R = NRAS Q61R (Homo sapiens, UniProt P01111+P62937, Q61R)
Sequence of NRAS Q61R (P01111 whole entry Q61R): as the sequence (P01111 whole entry G12C) above, with C12G, Q61R counted along it
Sequence of NRAS Q61R (P62937 whole entry): as the sequence (P62937 whole entry) above
Procedure, shortened: as §1

NRAS Q61K = NRAS Q61K (Homo sapiens, UniProt P01111+P62937, Q61K)
Sequence of NRAS Q61K (P01111 whole entry Q61K): as the sequence (P01111 whole entry G12C) above, with C12G, Q61K counted along it
Sequence of NRAS Q61K (P62937 whole entry): as the sequence (P62937 whole entry) above
Procedure, shortened: as §1

NRAS WT = NRAS WT (Homo sapiens, UniProt P01111+P62937)
Sequence of NRAS WT (P01111 whole entry): as the sequence (P01111 whole entry G12C) above, with C12G counted along it
Sequence of NRAS WT (P62937 whole entry): as the sequence (P62937 whole entry) above
Procedure, shortened: as §1

KRAS G12S = KRAS G12S (Homo sapiens, UniProt P01116+P62937, G12S); conditions: with Cyclophilin A
Sequence of KRAS G12S (P01116 1-169 isoform P01116-2 G12S limits assumed): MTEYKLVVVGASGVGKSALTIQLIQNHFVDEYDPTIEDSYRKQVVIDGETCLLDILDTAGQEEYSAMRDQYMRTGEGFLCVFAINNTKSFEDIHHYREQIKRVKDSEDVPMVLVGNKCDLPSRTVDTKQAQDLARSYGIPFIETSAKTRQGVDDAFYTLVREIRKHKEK
Sequence of KRAS G12S (P62937 whole entry): as the sequence (P62937 whole entry) above
Procedure, shortened: as §1

KRAS Q61H = KRAS Q61H (Homo sapiens, UniProt P01116+P62937, Q61H)
Sequence of KRAS Q61H (P01116 1-169 isoform P01116-2 Q61H limits assumed): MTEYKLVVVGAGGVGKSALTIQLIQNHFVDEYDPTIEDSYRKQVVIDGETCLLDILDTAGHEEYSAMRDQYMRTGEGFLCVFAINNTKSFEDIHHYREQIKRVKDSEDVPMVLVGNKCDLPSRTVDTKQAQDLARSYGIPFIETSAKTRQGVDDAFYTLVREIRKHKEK
Sequence of KRAS Q61H (P62937 whole entry): as the sequence (P62937 whole entry) above
Procedure, shortened: as §1

KRAS G12C = KRAS G12C (Homo sapiens, UniProt P01116+P62937, G12C); conditions: with Cyclophilin A
Sequence of KRAS G12C (P01116 1-169 isoform P01116-2 G12C limits assumed): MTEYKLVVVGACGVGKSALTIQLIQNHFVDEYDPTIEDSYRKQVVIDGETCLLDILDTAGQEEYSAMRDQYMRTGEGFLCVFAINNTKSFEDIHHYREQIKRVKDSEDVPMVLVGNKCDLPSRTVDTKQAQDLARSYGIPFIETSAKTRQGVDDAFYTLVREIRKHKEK
Sequence of KRAS G12C (P62937 whole entry): as the sequence (P62937 whole entry) above
Procedure, shortened: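 His6-K-Ras G12C-GMPPNP (12.5 nM), GST-BRAF RBD (50 nM) and tagless Cyclophilin A (25 μM) incubated 3 h at 25 °C with compound (10-point 3-fold series from 30 μM), pH 7.3 HEPES buffer. Anti-His Eu/anti-GST APC added for 1.5 h; decreased TR-FRET ratio vs DMSO gives IC50.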

[1] = Ras-Raf disruption, read-out: KRAS G12D FRET data IC50
[2] = NRAS G12C, read-out: NRAS G12C FRET data IC50
[3] = Ras-Raf disruption, read-out: KRAS WT FRET data IC50
[4] = Ras-Raf disruption, read-out: KRAS G13C FRET data IC50
[5] = Ras-Raf disruption, read-out: KRAS G12V FRET data IC50
[6] = Ras-Raf disruption, read-out: KRAS G13D FRET data IC50
[7] = NRAS Q61R, read-out: NRAS Q61R FRET data IC50
[8] = NRAS Q61K, read-out: NRAS Q61K FRET data IC50
[9] = NRAS WT, read-out: NRAS WT FRET data IC50
[10] = Ras-Raf disruption, read-out: KRAS G12S FRET data IC50
[11] = KRAS Q61H, read-out: KRAS Q61H FRET data IC50
[12] = Ras-Raf disruption, read-out: KRAS G12C FRET data IC50
[13] = KRAS G12D FRET data IC50, Ras-Raf disruption
[14] = NRAS G12C FRET data IC50, NRAS G12C
[15] = KRAS WT FRET data IC50, Ras-Raf disruption
[16] = KRAS G13C FRET data IC50, Ras-Raf disruption
[17] = KRAS G12V FRET data IC50, Ras-Raf disruption
[18] = KRAS G13D FRET data IC50, Ras-Raf disruption
[19] = KRAS G12S FRET data IC50, Ras-Raf disruption
[20] = KRAS G12C FRET data IC50, Ras-Raf disruption

Sequence of KRAS G12D (P01116 1-169 isoform P01116-2 G12D limits assumed): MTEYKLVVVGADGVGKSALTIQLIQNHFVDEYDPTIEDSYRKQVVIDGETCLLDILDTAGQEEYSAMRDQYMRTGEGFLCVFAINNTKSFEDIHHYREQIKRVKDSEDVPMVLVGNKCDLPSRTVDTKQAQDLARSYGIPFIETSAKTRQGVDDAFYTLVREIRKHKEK
Sequence of KRAS G12D (P62937 whole entry): as the sequence (P62937 whole entry) above

**Q.** What does the source list for `CCn1c(-c2cccnc2[C@H](C)OC)c2c3cc(ccc31)-c1cc(O)cc(c1)C[C@H](NC(=O)[C@H](C(C)C)N(C)C(=O)[C@H]1C[C@H]3CC[C@@H](C1)N3C(=O)[C@H]1CN1)C(=O)N1CCC[C@H](N1)C(=O)OCC(C)(C)C2` (atropisomer, axis not shown) [Example 245]?
**A.** IC50 (KRAS G12D; [1]): 100 to 1000 nM; IC50 (NRAS G12C; [2]): 10 to 100 nM; IC50 (KRAS WT; [3]): 10 to 100 nM; IC50 (KRAS G13C; [4]): 10 to 100 nM; IC50 (KRAS G12V; [5]): 100 to 1000 nM; IC50 (KRAS G13D; [6]): 100 to 1000 nM; IC50 (NRAS Q61R; [7]): 100 to 1000 nM; IC50 (NRAS Q61K; [8]): 100 to 1000 nM; IC50 (NRAS WT; [9]): 10 to 100 nM; IC50 (KRAS G12S; [10]): 100 to 1000 nM; IC50 (KRAS Q61H; [11]): 10 to 100 nM; IC50 (KRAS G12C; [12]): 10 to 100 nM

**Q.** `CCn1c(-c2cccnc2[C@H](C)OC)c2c3cc(ccc31)-c1cc(O)cc(c1)C[C@H](NC(=O)[C@H](C1CCCC1)N(C)C(=O)CN(C)C(=O)[C@@H]1N[C@@H]1C1(F)CC1)C(=O)N1CCC[C@H](N1)C(=O)OCC(C)(C)C2` [Example 314] was tested. Which IC50 (KRAS G12D; [13]) did it give?
**A.** 100 to 1000 nM

**Q.** What about the IC50 (NRAS G12C; [14]) of the same molecule?
**A.** 10 to 100 nM

**Q.** What about the IC50 (KRAS WT; [15]) of the same molecule?
**A.** 10 to 100 nM

**Q.** What about the IC50 (KRAS G13C; [16]) of the same molecule?
**A.** 10 to 100 nM

**Q.** And the IC50 (KRAS G12V; [17])?
**A.** 10 to 100 nM

**Q.** What about the IC50 (KRAS G13D; [18]) of the same molecule?
**A.** 10 to 100 nM

**Q.** What about the IC50 (NRAS Q61R) of the same molecule?
**A.** 100 to 1000 nM

**Q.** And the IC50 (NRAS Q61K)?
**A.** 100 to 1000 nM

**Q.** What about the IC50 (NRAS WT) of the same molecule?
**A.** 10 to 100 nM

**Q.** What about the IC50 (KRAS G12S; [19]) of the same molecule?
**A.** 10 to 100 nM

**Q.** And the IC50 (KRAS Q61H)?
**A.** 10 to 100 nM

**Q.** And the IC50 (KRAS G12C; [20])?
**A.** 10 to 100 nM

**Q.** For `CCn1c(-c2cccnc2[C@H](C)OC)c2c3cc(ccc31)-c1cc(O)cc(c1)C[C@H](NC(=O)[C@H](C(C)C)N(C)C(=O)C13CC(CN1C(=O)[C@@H]1CN1)C3)C(=O)N1CCC[C@H](N1)C(=O)OCC(C)(C)C2` [Example 163], which IC50 (KRAS G12D; [13]) is on record?
**A.** 100 to 1000 nM

**Q.** And the IC50 (NRAS G12C; [14])?
**A.** 100 to 1000 nM

**Q.** What about the IC50 (KRAS WT; [15]) of the same molecule?
**A.** 100 to 1000 nM

**Q.** What about the IC50 (KRAS G13C; [16]) of the same molecule?
**A.** 100 to 1000 nM

**Q.** What about the IC50 (KRAS G12V; [17]) of the same molecule?
**A.** 100 to 1000 nM

**Q.** What about the IC50 (KRAS G13D; [18]) of the same molecule?
**A.** 100 to 1000 nM

**Q.** What about the IC50 (NRAS Q61R) of the same molecule?
**A.** 100 to 1000 nM

**Q.** What about the IC50 (NRAS Q61K) of the same molecule?
**A.** 100 to 1000 nM

**Q.** And the IC50 (NRAS WT)?
**A.** 100 to 1000 nM

**Q.** And the IC50 (KRAS G12S; [19])?
**A.** 100 to 1000 nM

**Q.** What about the IC50 (KRAS Q61H) of the same molecule?
**A.** 10 to 100 nM

**Q.** And the IC50 (KRAS G12C; [20])?
**A.** 100 to 1000 nM

**Q.** What does the source list for `CCn1c(-c2cccnc2[C@H](C)OC)c2c3cc(ccc31)-c1csc(n1)C[C@H](NC(=O)[C@H](C(C)C)N(C)C(=O)N1CCN(C(=O)[C@H]3CN3)[C@@H](C)C1)C(=O)N1CCC[C@H](N1)C(=O)OCC(C)(C)C2` [Example 297]?
**A.** IC50 (KRAS G12D; [1]): 100 to 1000 nM; IC50 (NRAS G12C; [2]): 10 to 100 nM; IC50 (KRAS WT; [3]): 10 to 100 nM; IC50 (KRAS G13C; [4]): 10 to 100 nM; IC50 (KRAS G12V; [5]): 100 to 1000 nM; IC50 (KRAS G13D; [6]): 100 to 1000 nM; IC50 (NRAS Q61R; [7]): 10 to 100 nM; IC50 (NRAS Q61K; [8]): 10 to 100 nM; IC50 (NRAS WT; [9]): 10 to 100 nM; IC50 (KRAS G12S; [10]): 100 to 1000 nM; IC50 (KRAS Q61H; [11]): 10 to 100 nM; IC50 (KRAS G12C; [12]): 10 to 100 nM

**Q.** What does the source list for `CCn1c(-c2cccnc2[C@H](C)OC)c2c3cc(ccc31)-c1csc(n1)C[C@H](NC(=O)[C@H](C(C)C)N(C)C(=O)N(C)[C@H]1CCCN(C(=O)[C@H]3CN3)C1)C(=O)N1CCC[C@H](N1)C(=O)OCC(C)(C)C2` (atropisomer, axis not shown) [Example 295]?
**A.** IC50 (KRAS G12D; [1]): 1000 to 10000 nM; IC50 (NRAS G12C; [2]): 100 to 1000 nM; IC50 (KRAS WT; [3]): 100 to 1000 nM; IC50 (KRAS G13C; [4]): 1000 to 10000 nM; IC50 (KRAS G12V; [5]): 1000 to 10000 nM; IC50 (KRAS G13D; [6]): 1000 to 10000 nM; IC50 (NRAS Q61R; [7]): 1000 to 10000 nM; IC50 (NRAS Q61K; [8]): 100 to 1000 nM; IC50 (NRAS WT; [9]): 100 to 1000 nM; IC50 (KRAS G12S; [10]): 1000 to 10000 nM; IC50 (KRAS Q61H; [11]): 100 to 1000 nM; IC50 (KRAS G12C; [12]): 100 to 1000 nM

**Q.** For `CCn1c(-c2cccnc2[C@H](C)OC)c2c3cc(ccc31)-c1csc(n1)C[C@H](NC(=O)[C@H](C(C)C)N(C)C(=O)N1CC(CN(C)C(=O)[C@@H]3CN3)C1)C(=O)N1CCC[C@H](N1)C(=O)OCC(C)(C)C2` (atropisomer, axis not shown) [Example 225], which IC50 (KRAS G12D; [1]) is on record?
**A.** 100 to 1000 nM

**Q.** What about the IC50 (NRAS G12C; [2]) of the same molecule?
**A.** 10 to 100 nM

**Q.** What about the IC50 (KRAS WT; [3]) of the same molecule?
**A.** 100 to 1000 nM

**Q.** And the IC50 (KRAS G13C; [4])?
**A.** 100 to 1000 nM

**Q.** What about the IC50 (KRAS G12V; [5]) of the same molecule?
**A.** 100 to 1000 nM

**Q.** And the IC50 (KRAS G13D; [6])?
**A.** 100 to 1000 nM

**Q.** And the IC50 (NRAS Q61R; [7])?
**A.** 100 to 1000 nM

**Q.** And the IC50 (NRAS Q61K; [8])?
**A.** 10 to 100 nM

**Q.** What about the IC50 (NRAS WT; [9]) of the same molecule?
**A.** 10 to 100 nM

**Q.** And the IC50 (KRAS G12S; [10])?
**A.** 100 to 1000 nM

**Q.** What about the IC50 (KRAS Q61H; [11]) of the same molecule?
**A.** 10 to 100 nM

**Q.** And the IC50 (KRAS G12C; [12])?
**A.** 10 to 100 nM
